Assay results from patent US20200024278A1, “COMPOSITION COMPRISING ANTIBIOTIC COMPOUND AND AN HETEROCYCLIC COMPOUND AND THEIR USE IN PREVENTING OR TREATING BACTERIAL INFECTIONS” (MUTABILIS, priority 2016, published 2020).

How the values were obtained:
Assay in all cases: MIC, broth microdilution (CLSI), substance alone or ATB combined with compound at 4 or 8 μg/mL
ECO UFR39 = assay type: cell-based, E. coli; details: ECO UFR39
How it was run: (§1)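 Broth microdilution; ca-MHB; 5·10^5 CFU/mL; 35° C, 16-20 h; compound alone or fixed 4/8 μg/mL with antibiotic series; endpoint = no visible growth.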

ECO 190317 = assay type: cell-based, E. coli; details: ECO 190317
How it was run: as §1

PAE UFR90 = assay type: cell-based, P. aeruginosa; details: PAE UFR90
How it was run: as §1

PAE UFR48 = assay type: cell-based, P. aeruginosa; details: PAE UFR48
How it was run: as §1

PAE 105250 = assay type: cell-based, P. aeruginosa; details: PAE 105250
How it was run: as §1

SPN 49619 = assay type: cell-based, S. pneumoniae; details: SPN 49619
How it was run: as §1

CN(C)c1cc(NC(=O)CNC(C)(C)C)c(O)c2c1C[C@H]1C[C@H]3[C@H](N(C)C)C(O)=C(C(N)=O)C(=O)[C@@]3(O)C(O)=C1C2=O [TGC] was tested, and the “MIC ATB combined with Example 11 @8 μg/ml” value (ECO UFR39; with Example 11 at 8 μg/ml) was <0.031 µg/mL, the “MIC ATB combined with Example 12 @8 μg/ml” value (ECO UFR39; with Example 12 at 8 μg/ml) was <0.031 µg/mL and the “MIC ATB combined with Example 13 @8 μg/ml” value (ECO UFR39; with Example 13 at 8 μg/ml) was <0.031 µg/mL. For the same molecule, the “MIC ATB combined with Example 14 @8 μg/ml” value (ECO UFR39; with Example 14 at 8 μg/ml) was <0.031 µg/mL, the “MIC ATB combined with Example 15 @4 μgml” value (ECO UFR39; with Example 15 at 4 μg/ml) was <0.031 µg/mL and the “MIC ATB combined with Example 16 @4 μg/ml” value (ECO UFR39; with Example 16 at 4 μg/ml) was <0.031 µg/mL. The “MIC ATB alone” value (ECO 190317; antibiotic alone) was 0.25 µg/mL, the “MIC ATB combined with Example 1 @8 μg/ml” value (ECO 190317; with Example 1 @8 μg/ml) was <0.031 µg/mL and the “MIC ATB combined with Example 1 @8 μg/ml” value (ECO 190317; with Example 1 at 8 μg/ml) was <0.031 µg/mL. The “MIC ATB combined with Example 7 @8 μgml” value (ECO 190317; with Example 7 at 8 μg/ml) was <0.031 µg/mL, the “MIC ATB combined with Example 9 @4 μg/ml” value (ECO 190317; with Example 9 @4 μg/ml) was <0.031 µg/mL and the “MIC ATB combined with Example 9 @4 μg/ml” value (ECO 190317; with Example 9 at 4 μg/ml) was <0.031 µg/mL. For the same molecule, the “MIC ATB combined with Example 11 @8 μg/ml” value (ECO 190317; with Example 11 at 8 μg/ml) was <0.031 µg/mL, the “MIC ATB combined with Example 12 @8 μg/ml” value (ECO 190317; with Example 12 at 8 μg/ml) was <0.031 µg/mL and the “MIC ATB combined with Example 13 @8 μg/ml” value (ECO 190317; with Example 13 at 8 μg/ml) was <0.031 µg/mL. The “MIC ATB combined with Example 14 @8 μg/ml” value (ECO 190317; with Example 14 at 8 μg/ml) was <0.031 µg/mL, the “MIC ATB combined with Example 15 @4 μgml” value (ECO 190317; with Example 15 at 4 μg/ml) was <0.031 µg/mL and the “MIC ATB combined with Example 16 @4 μg/ml” value (ECO 190317; with Example 16 at 4 μg/ml) was <0.031 µg/mL. The “MIC ATB alone” value (PAE UFR90; antibiotic alone) was 16 µg/mL, the “MIC ATB combined with Example 1 @8 μg/ml” value (PAE UFR90; with Example 1 @8 μg/ml) was <0.031 µg/mL and the “MIC ATB combined with Example 1 @8 μg/ml” value (PAE UFR90; with Example 1 at 8 μg/ml) was <0.031 µg/mL. For the same molecule, the “MIC ATB combined with Example 7 @8 μgml” value (PAE UFR90; with Example 7 at 8 μg/ml) was 32 µg/mL, the “MIC ATB combined with Example 9 @4 μg/ml” value (PAE UFR90; with Example 9 @4 μg/ml) was 16 µg/mL and the “MIC ATB combined with Example 9 @4 μg/ml” value (PAE UFR90; with Example 9 at 4 μg/ml) was 16 µg/mL. For the same molecule, the “MIC ATB combined with Example 11 @8 μg/ml” value (PAE UFR90; with Example 11 at 8 μg/ml) was 16 µg/mL, the “MIC ATB combined with Example 12 @8 μg/ml” value (PAE UFR90; with Example 12 at 8 μg/ml) was 16 µg/mL and the “MIC ATB combined with Example 13 @8 μg/ml” value (PAE UFR90; with Example 13 at 8 μg/ml) was 16 µg/mL. The “MIC ATB combined with Example 14 @8 μg/ml” value (PAE UFR90; with Example 14 at 8 μg/ml) was 16 µg/mL, the “MIC ATB combined with Example 15 @4 μgml” value (PAE UFR90; with Example 15 at 4 μg/ml) was 16 µg/mL and the “MIC ATB combined with Example 16 @4 μg/ml” value (PAE UFR90; with Example 16 at 4 μg/ml) was 16 µg/mL. For the same molecule, the “MIC ATB alone” value (PAE UFR48; antibiotic alone) was 32 µg/mL, the “MIC ATB combined with Example 1 @8 μg/ml” value (PAE UFR48; with Example 1 @8 μg/ml) was <0.031 µg/mL and the “MIC ATB combined with Example 1 @8 μg/ml” value (PAE UFR48; with Example 1 at 8 μg/ml) was <0.031 µg/mL. The “MIC ATB combined with Example 7 @8 μgml” value (PAE UFR48; with Example 7 at 8 μg/ml) was >32 µg/mL, the “MIC ATB combined with Example 9 @4 μg/ml” value (PAE UFR48; with Example 9 @4 μg/ml) was 32 µg/mL and the “MIC ATB combined with Example 9 @4 μg/ml” value (PAE UFR48; with Example 9 at 4 μg/ml) was 32 µg/mL. For the same molecule, the “MIC ATB combined with Example 11 @8 μg/ml” value (PAE UFR48; with Example 11 at 8 μg/ml) was 32 µg/mL, the “MIC ATB combined with Example 12 @8 μg/ml” value (PAE UFR48; with Example 12 at 8 μg/ml) was 32 µg/mL and the “MIC ATB combined with Example 13 @8 μg/ml” value (PAE UFR48; with Example 13 at 8 μg/ml) was 32 µg/mL. For the same molecule, the “MIC ATB combined with Example 14 @8 μg/ml” value (PAE UFR48; with Example 14 at 8 μg/ml) was 32 µg/mL, the “MIC ATB combined with Example 15 @4 μgml” value (PAE UFR48; with Example 15 at 4 μg/ml) was 32 µg/mL and the “MIC ATB combined with Example 16 @4 μg/ml” value (PAE UFR48; with Example 16 at 4 μg/ml) was 32 µg/mL. For the same molecule, the “MIC ATB alone” value (PAE 105250; antibiotic alone) was 8 µg/mL, the “MIC ATB combined with Example 1 @8 μg/ml” value (PAE 105250; with Example 1 @8 μg/ml) was 0.5 µg/mL and the “MIC ATB combined with Example 1 @8 μg/ml” value (PAE 105250; with Example 1 at 8 μg/ml) was 0.5 µg/mL. The “MIC ATB combined with Example 7 @8 μgml” value (PAE 105250; with Example 7 at 8 μg/ml) was 32 µg/mL, the “MIC ATB combined with Example 9 @4 μg/ml” value (PAE 105250; with Example 9 @4 μg/ml) was 8 µg/mL and the “MIC ATB combined with Example 9 @4 μg/ml” value (PAE 105250; with Example 9 at 4 μg/ml) was 8 µg/mL. The “MIC ATB combined with Example 11 @8 μg/ml” value (PAE 105250; with Example 11 at 8 μg/ml) was 8 µg/mL, the “MIC ATB combined with Example 12 @8 μg/ml” value (PAE 105250; with Example 12 at 8 μg/ml) was 8 µg/mL and the “MIC ATB combined with Example 13 @8 μg/ml” value (PAE 105250; with Example 13 at 8 μg/ml) was 8 µg/mL. For the same molecule, the “MIC ATB combined with Example 14 @8 μg/ml” value (PAE 105250; with Example 14 at 8 μg/ml) was 8 µg/mL, the “MIC ATB combined with Example 15 @4 μgml” value (PAE 105250; with Example 15 at 4 μg/ml) was 8 µg/mL and the “MIC ATB combined with Example 16 @4 μg/ml” value (PAE 105250; with Example 16 at 4 μg/ml) was 8 µg/mL. The “MIC ATB alone” value (SPN 49619; antibiotic alone) was 0.125 µg/mL, the “MIC ATB combined with Example 1 @8 μg/ml” value (SPN 49619; with Example 1 @8 μg/ml) was 0.125 µg/mL and the “MIC ATB combined with Example 1 @8 μg/ml” value (SPN 49619; with Example 1 at 8 μg/ml) was 0.125 µg/mL. The “MIC ATB combined with Example 7 @8 μgml” value (SPN 49619; with Example 7 at 8 μg/ml) was 0.063 µg/mL, the “MIC ATB combined with Example 9 @4 μg/ml” value (SPN 49619; with Example 9 @4 μg/ml) was <0.031 µg/mL and the “MIC ATB combined with Example 9 @4 μg/ml” value (SPN 49619; with Example 9 at 4 μg/ml) was <0.031 µg/mL. For the same molecule, the “MIC ATB combined with Example 11 @8 μg/ml” value (SPN 49619; with Example 11 at 8 μg/ml) was “<=0.031 μg/mL”, the “MIC ATB combined with Example 12 @8 μg/ml” value (SPN 49619; with Example 12 at 8 μg/ml) was <0.031 µg/mL and the “MIC ATB combined with Example 13 @8 μg/ml” value (SPN 49619; with Example 13 at 8 μg/ml) was 0.063 µg/mL. The “MIC ATB combined with Example 14 @8 μg/ml” value (SPN 49619; with Example 14 at 8 μg/ml) was <0.031 µg/mL, the “MIC ATB combined with Example 15 @4 μgml” value (SPN 49619; with Example 15 at 4 μg/ml) was “<=0.031 μg/mL” and the “MIC ATB combined with Example 16 @4 μg/ml” value (SPN 49619; with Example 16 at 4 μg/ml) was <0.031 µg/mL.
